Active and inactive are the calls of the source. The calls are words filed in the database; no cut-off is given here.
Assays:
[1] = target: Histone deacetylase; type: subcellular, Homo sapiens, Nucleus; conditions: hela
Description: Inhibition of HDAC in human HeLa cell nuclear extract using Kac fluorogenic peptide as substrate containing residues 379-382 of p53 by fluorescence assay

[2] = target: T1, Histone deacetylase 1 (Homo sapiens, UniProt Q13547); assay: Inhibition of HDAC1 (unknown origin) at 10 uM using fluorogenic peptide as substrate pre-incubated for 15 mins followed by substrate addition incubated for 30 mins by fluorescence assay relative to control; conditions: time 45.0 min
[3] = target: Histone deacetylase 2 (Homo sapiens) (UniProt Q92769); assay: Inhibition of HDAC2 (unknown origin) at 10 uM using fluorogenic peptide as substrate pre-incubated for 15 mins followed by substrate addition incubated for 30 mins by fluorescence assay; conditions: time 45.0 min
[4] = target: Histone deacetylase 3 (Homo sapiens) (UniProt O15379); assay: Inhibition of HDAC3 (unknown origin) at 10 uM using fluorogenic peptide as substrate pre-incubated for 15 mins followed by substrate addition incubated for 30 mins by fluorescence assay; conditions: time 45.0 min
[5] = target: Histone deacetylase 4 (Homo sapiens) (UniProt P56524); assay: Inhibition of HDAC4 (unknown origin) at 10 uM using fluorogenic peptide as substrate pre-incubated for 15 mins followed by substrate addition incubated for 30 mins by fluorescence assay; conditions: time 45.0 min
[6] = target: T2, Protein deacetylase HDAC6 (Homo sapiens) (UniProt Q9UBN7); assay: Inhibition of HDAC6 (unknown origin) at 10 uM using fluorogenic peptide as substrate pre-incubated for 15 mins followed by substrate addition incubated for 30 mins by fluorescence assay; conditions: time 45.0 min
T2 sequence (whole entry): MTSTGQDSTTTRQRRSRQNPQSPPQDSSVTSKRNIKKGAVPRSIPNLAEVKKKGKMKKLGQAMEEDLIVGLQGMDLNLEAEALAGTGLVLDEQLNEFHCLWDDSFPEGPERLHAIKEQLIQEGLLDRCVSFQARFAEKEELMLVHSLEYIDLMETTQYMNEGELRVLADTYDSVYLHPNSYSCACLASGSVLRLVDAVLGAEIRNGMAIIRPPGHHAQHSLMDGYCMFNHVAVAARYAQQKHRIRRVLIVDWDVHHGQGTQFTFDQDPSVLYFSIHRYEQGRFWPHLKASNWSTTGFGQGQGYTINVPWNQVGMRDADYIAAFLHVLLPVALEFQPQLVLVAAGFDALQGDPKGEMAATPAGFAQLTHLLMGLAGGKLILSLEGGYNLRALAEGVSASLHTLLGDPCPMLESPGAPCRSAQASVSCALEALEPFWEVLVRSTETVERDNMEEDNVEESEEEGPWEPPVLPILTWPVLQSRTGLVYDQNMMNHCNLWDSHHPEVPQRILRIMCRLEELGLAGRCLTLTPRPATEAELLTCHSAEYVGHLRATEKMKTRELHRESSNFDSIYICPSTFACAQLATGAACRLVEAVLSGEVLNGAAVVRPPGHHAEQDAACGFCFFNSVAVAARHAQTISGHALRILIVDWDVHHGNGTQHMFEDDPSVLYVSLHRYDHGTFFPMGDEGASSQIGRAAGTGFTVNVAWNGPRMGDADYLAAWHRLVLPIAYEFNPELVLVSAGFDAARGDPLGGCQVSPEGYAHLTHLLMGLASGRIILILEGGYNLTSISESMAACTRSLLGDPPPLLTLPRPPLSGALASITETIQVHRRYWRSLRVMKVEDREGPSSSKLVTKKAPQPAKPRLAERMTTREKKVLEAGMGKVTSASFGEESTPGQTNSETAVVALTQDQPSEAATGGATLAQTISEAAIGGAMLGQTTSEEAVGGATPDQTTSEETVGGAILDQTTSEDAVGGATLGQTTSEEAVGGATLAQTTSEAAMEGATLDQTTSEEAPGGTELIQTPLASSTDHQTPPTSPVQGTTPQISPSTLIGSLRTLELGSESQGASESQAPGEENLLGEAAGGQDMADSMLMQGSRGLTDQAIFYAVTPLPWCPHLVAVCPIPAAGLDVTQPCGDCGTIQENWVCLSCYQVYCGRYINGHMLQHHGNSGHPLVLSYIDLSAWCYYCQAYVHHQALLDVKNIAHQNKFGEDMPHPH

[7] = target: T3, Histone deacetylase 8 (Homo sapiens) (UniProt Q9BY41); assay: Inhibition of HDAC8 (unknown origin) at 10 uM using fluorogenic peptide as substrate pre-incubated for 15 mins followed by substrate addition incubated for 30 mins by fluorescence assay; conditions: time 45.0 min
T3 sequence (whole entry): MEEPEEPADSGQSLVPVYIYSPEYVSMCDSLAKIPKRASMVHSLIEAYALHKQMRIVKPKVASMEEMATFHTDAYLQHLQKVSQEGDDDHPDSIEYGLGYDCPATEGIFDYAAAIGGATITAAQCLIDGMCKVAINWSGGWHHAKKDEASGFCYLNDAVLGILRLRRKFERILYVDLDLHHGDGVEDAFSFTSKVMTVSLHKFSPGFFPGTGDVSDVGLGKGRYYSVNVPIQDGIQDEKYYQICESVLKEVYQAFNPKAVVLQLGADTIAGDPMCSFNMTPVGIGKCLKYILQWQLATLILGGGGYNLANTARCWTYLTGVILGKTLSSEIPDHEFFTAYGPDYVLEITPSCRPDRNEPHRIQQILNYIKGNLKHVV

[8] = target: T4, Protein deacetylase HDAC6 (Homo sapiens, UniProt Q9UBN7); assay: Inhibition of HDAC6 (unknown origin) using fluorogenic peptide as the substrate containing residues 379-382 of p53at 10 uM pre-incubated for 15 mins followed by substrate addition incubated for 30 mins by multimode plate reader
T4 sequence (Q9UBN7 whole entry): T2 sequence (whole entry)

[9] = target: T1, Histone deacetylase 1; assay: Inhibition of HDAC1 (unknown origin) using fluorogenic peptide as the substrate containing residues 379-382 of p53 pre-incubated for 15 mins followed by substrate addition incubated for 30 mins by multimode plate reader
[10] = test system: U-937; assay: Cytotoxicity against human U-937 cells assessed as cell death at 5 uM incubated for 24 hrs by PI staining based FACS analysis relative to control; type: functional
[11] = test system: U-937; assay: Cytotoxicity against human U-937 cells assessed as cell death at 1 uM incubated for 24 hrs by PI staining based FACS analysis relative to control; type: functional
[12] = test system: U-937; assay: Induction of cell cycle arrest in human U-937 assessed as reduced accumulation of cells in S phase at 1 uM incubated for 24 hrs by FACS analysis; type: functional, cell-based
[13] = test system: U-937; assay: Induction of cell cycle arrest in human U-937 assessed as increase accumulation of cells in G2/M phase at 1 to 5 uM incubated for 24 hrs by FACS analysis; type: functional, cell-based; conditions: dose 1-5 µM
[14] = test system: U-937; assay: Induction of cell cycle arrest in human U-937 assessed as decrease accumulation of cells in G1 phase at 5 uM incubated for 24 hrs by FACS analysis; type: functional, cell-based
[15] = test system: HCT-116; assay: Induction of cell cycle arrest in human HCT-116 assessed as accumulation of cells in G2/M phase at 1 to 5 uM incubated for 24 hrs by FACS analysis relative to SAHA; type: functional; conditions: dose 1-5 µM
[16] = target: T5, Histone deacetylase (Homo sapiens) (UniProt Q13547+O15379+Q9UBN7+Q92769+Q9UQL6+Q8WUI4+Q9BY41+Q96DB2+P56524+Q9UKV0+Q969S8); assay: Inhibition of HDAC in human U-937 cells assessed as upregulation of histone H3 acetylation at lysine 14 residue at 1 uM incubated for 24 hrs by immunoblotting analysis; type: cell-based
[17] = target: T5, Histone deacetylase (Homo sapiens); assay: Inhibition of HDAC in human U-937 cells assessed as upregulation of histone H3 acetylation at lysine 14 residue at 5 uM incubated for 24 hrs by immunoblotting analysis; type: cell-based
[18] = target: T5, Histone deacetylase (Homo sapiens); assay: Inhibition of HDAC in human HCT-116 cells assessed as upregulation of histone H3 acetylation at lysine 14 residue at 1 uM incubated for 24 hrs by immunoblotting analysis; type: cell-based
[19] = target: T5, Histone deacetylase (Homo sapiens); assay: Inhibition of HDAC in human U-937 cells assessed as upregulation of acetyl alpha-tubulin level at 5 uM incubated for 24 hrs by immunoblotting analysis; type: cell-based
[20] = target: T5, Histone deacetylase (Homo sapiens); assay: Inhibition of HDAC in human HCT-116 cells assessed as upregulation of acetyl alpha-tubulin level at 1 to 5 uM incubated for 24 hrs by immunoblotting analysis; type: cell-based; conditions: dose 1-5 µM
[21] = test system: HCT-116; assay: Induction of apoptosis in human HCT-116 cells assessed as increased p21 protein expression level at 1 to 5 uM incubated for 24 hrs by immunoblotting analysis; type: functional, cell-based; conditions: dose 1-5 µM
[22] = test system: U-937; assay: Induction of apoptosis in human U-937 cells assessed as increased p21 protein expression level at 1 to 5 uM incubated for 24 hrs by immunoblotting analysis; type: functional, cell-based; conditions: dose 1-5 µM
[23] = test system: HCT-116; assay: Cytotoxicity against human HCT-116 cells assessed as reduction in cell death at 1 uM incubated for 24 hrs by PI staining based FACS analysis; type: functional
[24] = test system: HCT-116; assay: Cytotoxicity against human HCT-116 cells assessed as cell death at 5 uM incubated for 24 hrs by PI staining based FACS analysis relative to control; type: functional
[25] = test system: U-937; assay: Cytotoxicity against human U-937 cells assessed as cell death at 1 to 5 uM incubated for 24 hrs by PI staining based FACS analysis relative to control; type: functional; conditions: dose 1-5 µM
[26] = test system: U-937; assay: Cytotoxicity against human U-937 cells assessed as cell viability incubated for 24 hrs by MTT assay; type: functional, cell-based; conditions: U-937, 24 h
[27] = test system: HCT-116; assay: Cytotoxicity against human HCT-116 cells assessed as cell viability incubated for 24 hrs by MTT assay; type: functional, cell-based; conditions: HCT-116, 24 h
[28] = test system: U-937; assay: Induction of cell cycle arrest in human U-937 assessed as decrease accumulation of cells in G1 phase at 1 to 5 uM incubated for 24 hrs by FACS analysis; type: functional, cell-based; conditions: dose 1-5 µM
[29] = test system: HCT-116; assay: Induction of cell cycle arrest in human HCT-116 assessed as decrease accumulation of cells in G1 phase at 1 to 5 uM incubated for 24 hrs by FACS analysis; type: functional, cell-based; conditions: dose 1-5 µM
[30] = test system: U-937; assay: Induction of cell cycle arrest in human U-937 assessed as decrease accumulation of cells in S phase at 1 to 5 uM incubated for 24 hrs by FACS analysis; type: functional, cell-based; conditions: dose 1-5 µM
[31] = test system: HCT-116; assay: Induction of cell cycle arrest in human HCT-116 assessed as decrease accumulation of cells in S phase at 1 to 5 uM incubated for 24 hrs by FACS analysis; type: functional, cell-based; conditions: dose 1-5 µM
[32] = test system: U-937; assay: Induction of cell cycle arrest in human U-937 assessed as decrease accumulation of cells in S phase at 5 uM incubated for 24 hrs by FACS analysis; type: functional, cell-based
[33] = test system: U-937; assay: Induction of cell cycle arrest in human U-937 assessed as increase accumulation of cells in G2/M phase at 5 uM incubated for 24 hrs by FACS analysis; type: functional, cell-based
[34] = test system: HCT-116; assay: Induction of cell cycle arrest in human HCT-116 assessed as accumulation of cells in G2/M phase at 5 uM incubated for 24 hrs by FACS analysis; type: functional, cell-based

T1 sequence (Q13547 whole entry): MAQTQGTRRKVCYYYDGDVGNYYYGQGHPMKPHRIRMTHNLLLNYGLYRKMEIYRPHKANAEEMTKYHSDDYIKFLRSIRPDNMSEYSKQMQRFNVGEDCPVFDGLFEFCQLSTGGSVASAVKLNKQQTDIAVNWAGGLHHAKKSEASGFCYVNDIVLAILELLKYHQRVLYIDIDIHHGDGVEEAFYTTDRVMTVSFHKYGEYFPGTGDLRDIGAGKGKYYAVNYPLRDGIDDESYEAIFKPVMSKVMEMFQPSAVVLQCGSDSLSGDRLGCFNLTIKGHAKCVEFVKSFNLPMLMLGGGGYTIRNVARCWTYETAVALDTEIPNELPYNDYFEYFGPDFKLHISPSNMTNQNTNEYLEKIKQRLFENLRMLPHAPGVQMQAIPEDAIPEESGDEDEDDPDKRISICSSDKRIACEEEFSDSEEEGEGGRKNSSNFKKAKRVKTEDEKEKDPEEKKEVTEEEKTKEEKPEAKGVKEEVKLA
Sequence of Histone deacetylase 4 (Homo sapiens) (P56524 whole entry): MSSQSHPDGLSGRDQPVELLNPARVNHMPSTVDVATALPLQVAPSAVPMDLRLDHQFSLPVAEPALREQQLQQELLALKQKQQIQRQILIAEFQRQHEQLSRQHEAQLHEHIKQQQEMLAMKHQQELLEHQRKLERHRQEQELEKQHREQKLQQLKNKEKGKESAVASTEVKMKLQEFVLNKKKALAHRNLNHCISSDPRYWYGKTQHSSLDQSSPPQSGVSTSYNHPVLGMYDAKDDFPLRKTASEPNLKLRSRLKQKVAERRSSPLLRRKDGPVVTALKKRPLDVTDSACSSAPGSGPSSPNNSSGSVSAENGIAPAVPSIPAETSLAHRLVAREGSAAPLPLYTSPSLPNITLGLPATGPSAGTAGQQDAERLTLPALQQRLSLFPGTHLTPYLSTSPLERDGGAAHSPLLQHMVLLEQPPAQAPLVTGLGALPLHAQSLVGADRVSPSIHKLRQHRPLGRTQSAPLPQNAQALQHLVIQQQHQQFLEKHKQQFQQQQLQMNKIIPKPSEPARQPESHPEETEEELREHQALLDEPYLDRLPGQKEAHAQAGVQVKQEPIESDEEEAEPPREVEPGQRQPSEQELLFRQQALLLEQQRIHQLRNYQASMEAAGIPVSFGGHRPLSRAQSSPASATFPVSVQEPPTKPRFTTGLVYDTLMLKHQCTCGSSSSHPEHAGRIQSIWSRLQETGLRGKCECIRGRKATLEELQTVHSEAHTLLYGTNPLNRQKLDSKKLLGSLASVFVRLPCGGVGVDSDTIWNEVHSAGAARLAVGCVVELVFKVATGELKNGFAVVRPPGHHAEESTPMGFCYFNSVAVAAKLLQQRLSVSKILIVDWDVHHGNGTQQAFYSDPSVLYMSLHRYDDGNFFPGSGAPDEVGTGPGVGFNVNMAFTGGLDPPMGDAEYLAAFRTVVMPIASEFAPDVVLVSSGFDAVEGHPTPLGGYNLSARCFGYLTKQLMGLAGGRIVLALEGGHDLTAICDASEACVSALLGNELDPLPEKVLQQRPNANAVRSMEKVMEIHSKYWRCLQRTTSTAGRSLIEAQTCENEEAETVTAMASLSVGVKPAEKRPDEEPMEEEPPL
Sequence of Histone deacetylase 2 (Homo sapiens) (Q92769 whole entry): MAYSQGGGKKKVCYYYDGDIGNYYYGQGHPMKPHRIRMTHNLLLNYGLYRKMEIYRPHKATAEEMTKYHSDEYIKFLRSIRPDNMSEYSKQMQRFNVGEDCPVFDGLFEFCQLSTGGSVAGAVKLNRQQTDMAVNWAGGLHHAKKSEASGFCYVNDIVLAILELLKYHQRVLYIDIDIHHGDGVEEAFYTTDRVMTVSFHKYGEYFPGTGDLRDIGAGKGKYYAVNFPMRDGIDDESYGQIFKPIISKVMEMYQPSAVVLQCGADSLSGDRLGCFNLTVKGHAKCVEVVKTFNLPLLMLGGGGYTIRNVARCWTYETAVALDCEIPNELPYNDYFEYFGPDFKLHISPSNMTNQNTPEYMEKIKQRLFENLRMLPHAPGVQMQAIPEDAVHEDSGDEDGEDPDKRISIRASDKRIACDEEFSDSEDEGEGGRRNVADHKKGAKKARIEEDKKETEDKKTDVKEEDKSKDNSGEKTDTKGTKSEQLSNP
Sequence of Histone deacetylase 3 (Homo sapiens) (O15379 whole entry): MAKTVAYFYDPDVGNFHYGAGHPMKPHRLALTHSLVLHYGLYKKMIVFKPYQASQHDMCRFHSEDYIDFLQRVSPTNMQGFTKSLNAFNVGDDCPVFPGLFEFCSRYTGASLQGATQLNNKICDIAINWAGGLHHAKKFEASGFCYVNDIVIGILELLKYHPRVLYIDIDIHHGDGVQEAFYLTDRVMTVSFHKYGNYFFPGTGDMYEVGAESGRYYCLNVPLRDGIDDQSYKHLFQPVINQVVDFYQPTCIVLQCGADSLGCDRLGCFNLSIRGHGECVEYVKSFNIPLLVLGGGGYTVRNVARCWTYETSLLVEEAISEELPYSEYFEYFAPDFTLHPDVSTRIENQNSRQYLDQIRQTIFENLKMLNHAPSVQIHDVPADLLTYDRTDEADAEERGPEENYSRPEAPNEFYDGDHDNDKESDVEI

O=C(CCCCCN1C(=O)CC(c2ccccc2)S(=O)(=O)c2ccccc21)NO (racemic)
IC50 [1]: 38.6 nM | inhibition [2]: 99.1% | inhibition [3]: 100% | inhibition [4]: 99.3% | inhibition [5]: 51.4% | inhibition [6]: 98.8% | inhibition [7]: 87.3% | IC50 [8]: 23.2 nM | IC50 [9]: 115 nM | Activity [10]: ~12% | Activity [11]: 12% | Activity [12]: Active | Activity [13]: Active | Activity [14]: Active | Activity [15]: ~75% | Activity [16]: Active | Activity [17]: Active | Activity [18]: Active | Activity [19]: Active | Activity [20]: Active | Activity [21]: Active | Activity [22]: Active

O=C(CCCCCN1C(=O)CC(c2cccc(Br)c2)Sc2ccccc21)NO (racemic)
Activity [23]: Active | IC50 [1]: 293.3 nM | Activity [10]: ~12% | Activity [24]: 22% | Activity [12]: Active | Activity [13]: Active | Activity [14]: Active | Activity [15]: Active | Activity [17]: Active | Activity [19]: Active | Activity [20]: Active | Activity [21]: Active | Activity [22]: Active

O=C(CCCCCN1C(=O)CC(c2ccc(Cl)c(Cl)c2)S(=O)(=O)c2ccccc21)NO (racemic)
IC50 [1]: 27.1 nM | inhibition [2]: 96.9% | inhibition [6]: 99.5% | IC50 [8]: 12.3 nM | IC50 [9]: 88.2 nM | Activity [25]: ~6% | Activity [13]: Active | Activity [15]: Active | Activity [16]: Active | Activity [17]: Active | Activity [18]: Active | Activity [19]: Active | Activity [20]: Active | Activity [21]: Active | Activity [22]: Active | IC50 [26]: 13900 nM | IC50 [27]: 18500 nM | Activity [28]: Active | Activity [29]: Active | Activity [30]: Active | Activity [31]: Active

O=C(NCC1(c2nc(-c3ccccc3)cs2)CCOCC1)c1cccc(-c2noc(C(F)(F)F)n2)c1
inhibition [5]: 99.2%

O=C(CCCCCCC(=O)Nc1ccccc1)NO [VORINOSTAT]
Activity [10]: ~10% | Activity [14]: Active | Activity [32]: Active | Activity [33]: Active | Activity [34]: Active

O=C(CCCCCN1C(=O)CC(c2ccc(Cl)c(Cl)c2)Sc2ccccc21)NO (racemic)
Activity [23]: Active | IC50 [1]: 229.2 nM | Activity [10]: ~12% | Activity [24]: 22% | Activity [12]: Active | Activity [13]: Active | Activity [14]: Active | Activity [15]: Active | Activity [17]: Active | Activity [19]: Active | Activity [20]: Active | Activity [21]: Active | Activity [22]: Active

O=C(CCCCCN1C(=O)C[C@@H](c2ccc(Cl)c(Cl)c2)Sc2ccccc21)NO
Activity [23]: Active | IC50 [1]: 165.1 nM | Activity [10]: ~12% | Activity [24]: 22% | Activity [12]: Active | Activity [13]: Active | Activity [14]: Active | Activity [15]: Active | Activity [16]: Active | Activity [17]: Active | Activity [20]: Active | Activity [21]: Active | Activity [22]: Active
